Assay results published in US20070049564A1 (Wyeth, priority 2005, published 2007).
≈ marks a conversion by molar mass, not a printed value. Read-outs that look alike come from different tables or passages of the source.

Tests used:
S. pyogenes GC 4563 = experiment: MIC, broth microdilution; details: Streptococcus pyogenes
S. aureus GC 1131 = experiment: MIC, broth microdilution; details: Staphylococcus aureus
E. faecalis GC 4555 = experiment: MIC, broth microdilution; details: Enterococcus faecalis
E. coli = experiment: Range of MIC for E. coli strains; details: Escherichia coli
c. albicans GC 3066 = experiment: MIC, broth microdilution
Staph. = experiment: Range of MIC for Staph. strains, including MRSA; details: Staphylococcus aureus
E. coli GC 1073 = experiment: MIC, broth microdilution; details: Escherichia coli
S. pneumoniae+ GC 4465 = experiment: MIC, broth microdilution; details: Streptococcus pneumoniae
E. coli GC 2236 = experiment: MIC, broth microdilution; details: Escherichia coli
E. coli GC 2234 = experiment: MIC, broth microdilution; details: Escherichia coli
E. coli GC 6465 = experiment: MIC, broth microdilution; details: Escherichia coli
S. aureus GC 6466 = experiment: MIC, broth microdilution; details: Staphylococcus aureus
S. aureus GC 1079 = experiment: MIC, broth microdilution; details: Staphylococcus aureus
E. coli GC 2233 = experiment: MIC, broth microdilution; details: Escherichia coli
E. faecalis GC 2265 = experiment: MIC, broth microdilution; details: Enterococcus faecalis
E. coli GC 2272 = experiment: MIC, broth microdilution; details: Escherichia coli
E. faecium GC 2243 = experiment: MIC, broth microdilution; details: Enterococcus faecium
S. aureus GC 6469 = experiment: MIC, broth microdilution; details: Staphylococcus aureus
S. aureus GC 4536 = experiment: MIC, broth microdilution; details: Staphylococcus aureus
S. epidermidis GC 4935 = experiment: MIC, broth microdilution; details: Staphylococcus epidermidis

MIC (S. pyogenes GC 4563; GC4563, read-out: MINIMAL INHIBITORY CONCENTRATION MIC, pre-incubated in Human Serum): 0.25 µg/mL (≈ 0.331 µM)
MIC (S. pyogenes GC 4563; GC4563, read-out: MINIMAL INHIBITORY CONCENTRATION MIC, pre-incubated in Mouse Serum): 0.12 µg/mL (≈ 0.159 µM)
MIC (S. pyogenes GC 4563; GC4563, read-out: MINIMAL INHIBITORY CONCENTRATION MIC, pre-incubated in Water): 0.25 µg/mL (≈ 0.331 µM)
MIC (S. aureus GC 1131; GC1131, read-out: MINIMAL INHIBITORY CONCENTRATION MIC, pre-incubated in Human Serum): 0.5 µg/mL (≈ 0.662 µM)
MIC (S. aureus GC 1131; GC1131, read-out: MINIMAL INHIBITORY CONCENTRATION MIC, pre-incubated in Mouse Serum): 0.5 µg/mL (≈ 0.662 µM)
MIC (S. aureus GC 1131; GC1131, read-out: MINIMAL INHIBITORY CONCENTRATION MIC, pre-incubated in Water): 0.5 µg/mL (≈ 0.662 µM)
MIC (E. faecalis GC 4555; GC4555, read-out: MINIMAL INHIBITORY CONCENTRATION MIC, pre-incubated in Human Serum): 0.5 µg/mL (≈ 0.662 µM)
MIC (E. faecalis GC 4555; GC4555, read-out: MINIMAL INHIBITORY CONCENTRATION MIC, pre-incubated in Mouse Serum): 0.5 µg/mL (≈ 0.662 µM)
MIC (E. faecalis GC 4555; GC4555, read-out: MINIMAL INHIBITORY CONCENTRATION MIC, pre-incubated in Water): 2 µg/mL (≈ 2.65 µM)
MIC (E. coli; 20 h, read-out: Range of MIC, E. coli (Mouse Serum)): 0.5 to 2 µg/mL (≈ 0.662 to 2.65 µM)
MIC (E. coli; read-out: Minimum inhibitory concentration (MIC), E. coli (Human Serum)): 4 to 16 µg/mL (≈ 5.29 to 21.2 µM)
MIC (c. albicans GC 3066; Candida albicans, GC3066, read-out: MINIMAL INHIBITORY CONCENTRATION MIC): > 64 µg/mL
MINIMAL INHIBITORY CONCENTRATION MIC (c. albicans GC 3066; pre-incubated in Human Serum): >64 UG/ML
MINIMAL INHIBITORY CONCENTRATION MIC (c. albicans GC 3066; pre-incubated in Mouse Serum): >64 UG/ML
MIC (Staph.; MRSA, read-out: Range of MIC, Staph (Mouse Serum)): 0.25 to 1 µg/mL (≈ 0.331 to 1.32 µM)
MIC (Staph.; MRSA, read-out: Range of MIC, Staph (Water)): 0.25 to 2 µg/mL (≈ 0.331 to 2.65 µM)
MIC (Staph.; read-out: Minimum inhibitory concentration (MIC), Staph (Human Serum)): 0.25 to 1 µg/mL (≈ 0.331 to 1.32 µM)
MIC (Staph.; read-out: Minimum inhibitory concentration (MIC), Staph (Water)): 0.25 to 2 µg/mL (≈ 0.331 to 2.65 µM)
MIC (E. coli GC 1073; GC1073, read-out: MINIMAL INHIBITORY CONCENTRATION MIC, pre-incubated in Human Serum): 8 µg/mL (≈ 10.6 µM)
MIC (E. coli GC 1073; GC1073, read-out: MINIMAL INHIBITORY CONCENTRATION MIC, pre-incubated in Mouse Serum): 1 µg/mL (≈ 1.32 µM)
MIC (E. coli GC 1073; GC1073, read-out: MINIMAL INHIBITORY CONCENTRATION MIC, pre-incubated in Water): > 64 µg/mL
MIC (S. pneumoniae+ GC 4465; read-out: MINIMAL INHIBITORY CONCENTRATION MIC, pre-incubated in Human Serum): 1 µg/mL (≈ 1.32 µM)
MIC (S. pneumoniae+ GC 4465; read-out: MINIMAL INHIBITORY CONCENTRATION MIC, pre-incubated in Mouse Serum): 1 µg/mL (≈ 1.32 µM)
MIC (S. pneumoniae+ GC 4465; read-out: MINIMAL INHIBITORY CONCENTRATION MIC, pre-incubated in Water): 1 µg/mL (≈ 1.32 µM)
MIC (E. coli GC 2236; GC2236, read-out: MINIMAL INHIBITORY CONCENTRATION MIC, pre-incubated in Human Serum): 4 µg/mL (≈ 5.29 µM)
MIC (E. coli GC 2236; GC2236, read-out: MINIMAL INHIBITORY CONCENTRATION MIC, pre-incubated in Mouse Serum): 0.5 µg/mL (≈ 0.662 µM)
MIC (E. coli GC 2236; GC2236, read-out: MINIMAL INHIBITORY CONCENTRATION MIC, pre-incubated in Water): 64 µg/mL (≈ 84.7 µM)
MIC (E. coli GC 2234; GC2234, read-out: MINIMAL INHIBITORY CONCENTRATION MIC, pre-incubated in Human Serum): 4 µg/mL (≈ 5.29 µM)
MIC (E. coli GC 2234; GC2234, read-out: MINIMAL INHIBITORY CONCENTRATION MIC, pre-incubated in Mouse Serum): 0.5 µg/mL (≈ 0.662 µM)
MIC (E. coli GC 2234; GC2234, read-out: MINIMAL INHIBITORY CONCENTRATION MIC, pre-incubated in Water): 64 µg/mL (≈ 84.7 µM)
MIC (E. coli GC 6465; GC6465, read-out: MINIMAL INHIBITORY CONCENTRATION MIC, pre-incubated in Human Serum): 16 µg/mL (≈ 21.2 µM)
MIC (E. coli GC 6465; GC6465, read-out: MINIMAL INHIBITORY CONCENTRATION MIC, pre-incubated in Mouse Serum): 2 µg/mL (≈ 2.65 µM)
MIC (E. coli GC 6465; GC6465, read-out: MINIMAL INHIBITORY CONCENTRATION MIC, pre-incubated in Water): > 64 µg/mL
MIC (S. aureus GC 6466; GC6466, read-out: MINIMAL INHIBITORY CONCENTRATION MIC, pre-incubated in Human Serum): 0.25 µg/mL (≈ 0.331 µM)
MIC (S. aureus GC 6466; GC6466, read-out: MINIMAL INHIBITORY CONCENTRATION MIC, pre-incubated in Mouse Serum): 0.25 µg/mL (≈ 0.331 µM)
MIC (S. aureus GC 6466; GC6466, read-out: MINIMAL INHIBITORY CONCENTRATION MIC, pre-incubated in Water): 0.25 µg/mL (≈ 0.331 µM)
MIC (S. aureus GC 1079; GC1079, read-out: MINIMAL INHIBITORY CONCENTRATION MIC, pre-incubated in Human Serum): 0.5 µg/mL (≈ 0.662 µM)
MIC (S. aureus GC 1079; GC1079, read-out: MINIMAL INHIBITORY CONCENTRATION MIC, pre-incubated in Mouse Serum): 0.5 µg/mL (≈ 0.662 µM)
MIC (S. aureus GC 1079; GC1079, read-out: MINIMAL INHIBITORY CONCENTRATION MIC, pre-incubated in Water): 0.5 µg/mL (≈ 0.662 µM)
MIC (E. coli GC 2233; GC2233, read-out: MINIMAL INHIBITORY CONCENTRATION MIC, pre-incubated in Human Serum): 4 µg/mL (≈ 5.29 µM)
MIC (E. coli GC 2233; GC2233, read-out: MINIMAL INHIBITORY CONCENTRATION MIC, pre-incubated in Mouse Serum): 0.5 µg/mL (≈ 0.662 µM)
MIC (E. coli GC 2233; GC2233, read-out: MINIMAL INHIBITORY CONCENTRATION MIC, pre-incubated in Water): 64 µg/mL (≈ 84.7 µM)
MIC (E. faecalis GC 2265; GC2265, read-out: MINIMAL INHIBITORY CONCENTRATION MIC, pre-incubated in Human Serum): 1 µg/mL (≈ 1.32 µM)
MIC (E. faecalis GC 2265; GC2265, read-out: MINIMAL INHIBITORY CONCENTRATION MIC, pre-incubated in Mouse Serum): 0.5 µg/mL (≈ 0.662 µM)
MIC (E. faecalis GC 2265; GC2265, read-out: MINIMAL INHIBITORY CONCENTRATION MIC, pre-incubated in Water): 2 µg/mL (≈ 2.65 µM)
MIC (E. coli GC 2272; GC2272, read-out: MINIMAL INHIBITORY CONCENTRATION MIC, pre-incubated in Human Serum): 4 µg/mL (≈ 5.29 µM)
MIC (E. coli GC 2272; GC2272, read-out: MINIMAL INHIBITORY CONCENTRATION MIC, pre-incubated in Mouse Serum): 1 µg/mL (≈ 1.32 µM)
MIC (E. coli GC 2272; GC2272, read-out: MINIMAL INHIBITORY CONCENTRATION MIC, pre-incubated in Water): 64 µg/mL (≈ 84.7 µM)
MIC (E. faecium GC 2243; GC2243, read-out: MINIMAL INHIBITORY CONCENTRATION MIC, pre-incubated in Human Serum): 0.25 µg/mL (≈ 0.331 µM)
MIC (E. faecium GC 2243; GC2243, read-out: MINIMAL INHIBITORY CONCENTRATION MIC, pre-incubated in Mouse Serum): 0.25 µg/mL (≈ 0.331 µM)
MIC (E. faecium GC 2243; GC2243, read-out: MINIMAL INHIBITORY CONCENTRATION MIC, pre-incubated in Water): 0.5 µg/mL (≈ 0.662 µM)
MIC (S. aureus GC 6469; GC6469, read-out: MINIMAL INHIBITORY CONCENTRATION MIC, pre-incubated in Human Serum): 0.5 µg/mL (≈ 0.662 µM)
MIC (S. aureus GC 6469; GC6469, read-out: MINIMAL INHIBITORY CONCENTRATION MIC, pre-incubated in Mouse Serum): 1 µg/mL (≈ 1.32 µM)
MIC (S. aureus GC 6469; GC6469, read-out: MINIMAL INHIBITORY CONCENTRATION MIC, pre-incubated in Water): 1 µg/mL (≈ 1.32 µM)
MIC (S. aureus GC 4536; GC4536, read-out: MINIMAL INHIBITORY CONCENTRATION MIC, pre-incubated in Human Serum): 0.5 µg/mL (≈ 0.662 µM)
MIC (S. aureus GC 4536; GC4536, read-out: MINIMAL INHIBITORY CONCENTRATION MIC, pre-incubated in Mouse Serum): 0.5 µg/mL (≈ 0.662 µM)
MIC (S. aureus GC 4536; GC4536, read-out: MINIMAL INHIBITORY CONCENTRATION MIC, pre-incubated in Water): 0.5 µg/mL (≈ 0.662 µM)
MIC (S. epidermidis GC 4935; GC4935, read-out: MINIMAL INHIBITORY CONCENTRATION MIC, pre-incubated in Human Serum): 1 µg/mL (≈ 1.32 µM)
MIC (S. epidermidis GC 4935; GC4935, read-out: MINIMAL INHIBITORY CONCENTRATION MIC, pre-incubated in Mouse Serum): 1 µg/mL (≈ 1.32 µM)
MIC (S. epidermidis GC 4935; GC4935, read-out: MINIMAL INHIBITORY CONCENTRATION MIC, pre-incubated in Water): 2 µg/mL (≈ 2.65 µM)
Compound: CN(C)c1cc(NC(=O)CN(C(=O)OCOC(=O)C2CCCC2)C(C)(C)C)c(O)c2c1C[C@H]1C[C@H]3[C@H](N(C)C)C(O)=C(C(N)=O)C(=O)[C@@]3(O)C(O)=C1C2=O [Example 46, ({[(2-{[(5aR,6aS,7S,10aS)-9-(aminocarbonyl)-4,7-bis(dimethylamino)-1,8,10a,11-tetrahydroxy-10,12-dioxo-5,5a,6,6a,7,10,10a,12-octahydrotetracen-2-yl]amino}-2-oxoethyl)(tert-butyl)amino]carbonyl}oxy)methyl cyclopentanecarboxylate]
